Reference: patent publication US20220089602A1, “COMPOUNDS THAT INDUCE FERROPTIC CELL DEATH” (The Board of Trustees of the University of Illinois, priority 2019, published 2022)
“Also recorded” adds a separate entry of the source.

Tests used:
ES-2 cell line = assay: 72 hr cell viability assay (Alamar Blue), dose response IC50; assay type: cell-based; conditions: for anticancer activity (in words): 72 hr cell viability assay, ES-2 cells, relative to ferroptocide; for IC50: Homo sapiens, 72 hr, ES-2 cell line, Alamar Blue fluorescence, mean ± s.e.m., n ≥ 3
Protocol: 40 μL of media was added to each well of a 384-well tissue culture-treated plate. 3×100 nL of compound in DMSO was then pin-transferred from compound storage plates (2 mM stocks) into media-containing wells using the Platemate Plus at the UIUC High Throughput Screening Facility. A 100,000 cells/mL suspension of ES-2 cells was prepared, and 10 μL was added to each well for a final concentration of 1000 cells/well. Doxorubicin (100 μM final) was used as a positive control. Plates were sealed with gas-permeable seals and incubated at 37° C. for 72 h. After incubation, 5 μL of Alamar blue (440 μM resazurin in sterile PBS) was added and allowed to incubate for 3-4 h, until visible color change occurred. Fluorescence was measured in a Molecular Devices SpectraMax 3 (excitation=555 nm, emission=585 nm, emission cutoff=570 nm).
To a 384-well plate, 40 μL of 1.25× compound dilution or 1.25% DMSO-containing media was added (final volume of 1% DMSO). Concentrations of compounds tested were 100 μM to 100 nM. On each plate at least 3 technical replicates per compound were performed. Next, 10 μL of a 100,000 cells/mL suspension was added to each well, yielding a final concentration of 1,000 cells/well. To three wells in column 2 was added 1 μL of 10 mM doxorubicin (final concentration of 200 μM) as positive control of cell death. Plates were sealed with gas-permeable seals and incubated at 37° C. for 72 h. At that time, 5 μL of Alamar blue (440 μM resazurin in sterile PBS) was added and plates were incubated for 3-4 hours. Fluorescence was read on a Molecular Devices SpectraMax 3 (excitation=555 nm, emission=585 nm, emission cutoff=570 nm). Wells were normalized to the average of untreated wells (0% cell death). The data were plotted as compound concentration versus percent dead cells and fitted to a logistic-dose response curve using OriginPro 2015 (OriginLab, Northampton, Mass.). The data were generated in triplicate, and IC50 values are reported as the average of three separate experiments along with standard error of the mean.

A549 cells = assay: Protection studies against ferroptocide-induced cell death, AV/PI; assay type: cell-based; conditions: pre-treatment with protecting agent
Protocol: (§1) ES-2, HCT 116, Mia PaCa-2, A549, and 4T1 cells (1×10^5 cells/mL) were plated overnight in 12 well plates, prior to addition of compounds. For protection studies, samples were pre-treated with each protecting agent such as 25 μM Q-VD-OPh, 250 μM trolox, 2 μM ferrostatin-1, 5 mM NAC-1 (neutralized pH), or 100 μM deferoxamine (DFO) for two hours or 1 hr (NAC-1) before compound addition. Cells were incubated for the appropriate times and harvested for flow cytometry analysis. Cell pellets were resuspended in binding buffer (10 mM HEPES, pH 7.4, 140 mM NaCl, 2.5 mM CaCl2) containing 2 μg/mL propidium iodide and 5 μL/mL Annexin V-FITC conjugate antibody and analyzed for cell viability after gating for forward and side scattering. Ten thousand events were collected per sample in BD LSR II Flow Cytometer (BD Bioscience) and FCS express V6, De Novo software was used to perform experimental analysis.

ES-2 cells [1] = assay: as above; assay type: cell-based; conditions: pre-treatment with protecting agent
Protocol: as §1

4T1 cells = assay: as above; assay type: cell-based, murine; conditions: pre-treatment with protecting agent
Protocol: as §1

HCT 116 cells = assay: as above; assay type: cell-based; conditions: pre-treatment with protecting agent
Protocol: Cells were incubated for the appropriate times and harvested for flow cytometry analysis. Cell pellets were resuspended in binding buffer (10 mM HEPES, pH 7.4, 140 mM NaCl, 2.5 mM CaCl2) containing 2 μg/mL propidium iodide and 5 μL/mL Annexin V-FITC conjugate antibody and analyzed for cell viability after gating for forward and side scattering. Ten thousand events were collected per sample in BD LSR II Flow Cytometer (BD Bioscience) and FCS express V6, De Novo software was used to perform experimental analysis.

red blood cells = assay: Hemolysis assay; assay type: cell-based, human; conditions: 2 hr treatment with 333 μM
Protocol: Whole human blood in citrate phosphate dextrose was obtained from Bioreclamation LLC, stored at 4° C. and used before expiration date. 100 μL of whole blood was combined with 500 μL saline (0.9% NaCl) and centrifuged for 5 min at 300×g. The supernatant was carefully removed from the erythrocyte pellet and the liquid was discarded. Washed pellet 3× in 500 μL saline. The erythrocyte pellet was resuspended in 800 μL of Red Blood Cell Buffer (10 mM Na2HPO4, 150 mM NaCl, 1 mM MgCl2, pH 7.4). To a 0.5 mL eppendorf tube or a PCR plate was added 1.0 μL of 30× compound in DMSO and 19 μL RBC Buffer. For negative controls, 1.0 μL DMSO was combined with 19 μL RBC buffer. For positive controls, either 20 μL MilliQ H2O or 1.0 μL 30% Triton X-100 were combined with 19 μL RBC Buffer. Tubes or plates were briefly centrifuged. Next, 10 μL of washed erythrocyte suspension was added to each tube, then sealed. After incubation at 37° C. for 2 h, samples were centrifuged for 5 min at 300×g, and 20 μL of supernatant was carefully removed and transferred to wells of a clear flat-bottomed 384-well plate. Absorbance was measured at 540 nm. The data were plotted as compound concentration versus percent hemolysis, and fitted to OriginPro (OriginLab, Northampton, Mass.).

ES-2 cells [2] = assay: Confocal microscopy competition with fluorescent analogue P30; assay type: cell-based; conditions: pretreatment at 3× IC50 for 30 min, then P30 (5 μM)
Protocol: ES-2 cells (3×10^5 cell) were attached overnight in […] petri dish plates containing 2 ml of RPMI media. Prior to imaging, cells were stained for 30 min with Mitotracker Red CMXRoss at 100 nM final concentration. Upon media replacement, samples were pre-treated with 3× IC50 of ferroptocide, P27, L1, QQ1 for 30 min followed by treatment with 5 μM P30 for an additional 30 min and a PBS wash. PBS or phenol free media was added to each dish and cells were stained with Hoechst 33342 (1 μg/mL).

[3] = In vitro glutathione assay (LC-MS); assay type: physicochemical; conditions: 100 μM compound, 5 mM glutathione, PBS, 37° C.
Protocol: To an eppendorf tube added, 245 μL of 1×PBS, 5 μL of 10 mM DMSO stock of ferroptocide or P23 and 250 μL of reduced GSH (5 mM final concentration). Reactions were vortexed briefly and incubated at 37° C. Adduct formation was monitored at the indicated time points (0, 0.5, 1, 2, 3, 24 hr) by mixing an aliquot of 50 μL from the reaction mixture with 50 μL of MeOH before LC/MS analysis.

| Structure (SMILES) | anticancer activity (in words) (ES-2 cell line) | IC50 (ES-2 cell line) | further results |
| --- | --- | --- | --- |
| C[C@@H]1CC[C@@]23C[C@H](O)C(=O)[C@@]2(O)[C@]1(C)[C@H](OC(=O)CCl)C[C@@H](C1=CCC2C(=O)N(c4ccccc4)C(=O)C2C1)[C@@H]3C (stereo partly shown) [Compound P28] | minimal loss in activity; also recorded: retain biological activity | – | – |
| C[C@@H]1CC[C@@]23C[C@H](O)C(=O)[C@@]2(O)[C@]1(C)[C@H](OC(=O)CF)C[C@@H](C1=CCn2c(=O)n(-c4ccccc4)c(=O)n2C1)[C@@H]3C [Compound P22] | greatly diminished anticancer activity | 34 ± 5.7 µM | – |
| CO[C@H]1C[C@@]23CC[C@@H](C)[C@@](C)([C@H](OC(C)=O)C[C@@H](C4=CCn5c(=O)n(-c6ccccc6)c(=O)n5C4)[C@@H]2C)[C@]3(O)C1=O [Compound P21] | eliminated activity | > 100 µM | – |
| CCOC(=O)c1ccc(NC2CCCCC2)c(N)c1 [ferrostatin-1] | – | – | protection against ferroptocide-induced cell death (A549 cells): significantly protected against ferroptocide-induced cell death; protection against ferroptocide-induced cell death (ES-2 cells [1]): significantly protected against ferroptocide-induced cell death; protection against ferroptocide-induced cell death (4T1 cells): significantly protected against ferroptocide-induced cell death; protection against ferroptocide-induced cell death (HCT 116 cells): significantly protected against ferroptocide-induced cell death |
| C=CC(=C)[C@@H]1C[C@@H](OC(=O)CCl)[C@]2(C)[C@H](C)CC[C@]3(C[C@H](O)C(=O)[C@]32O)[C@H]1C [Compound P4] | – | 6.7 µM | hemolytic activity (red blood cells): no signs of hemolytic activity; also recorded: Lack of hemolytic activity |
| CC[C@H](C)C(=O)O[C@H]1C[C@@H](C)C=C2C=C[C@H](C)[C@H](CC[C@@H]3C[C@@H](OC(=O)CCl)CC(=O)O3)[C@H]21 [Compound L1] | – | – | competition of P30 staining (ES-2 cells [2]): non-competing compounds |
| C#CCN1C(=O)C2CC=C([C@@H]3C[C@@H](OC(=O)CCl)[C@]4(C)[C@H](C)CC[C@]5(C[C@H](O)C(=O)[C@]54O)[C@H]3C)CC2C1=O (stereo partly shown) [Compound P29] | retained anticancer activity similar to ferroptocide; also recorded: retain biological activity | – | – |
| CC(=O)N[C@@H](CS)C(=O)O [NAC-1, N-acteyl cysteine] | – | – | protection against ferroptocide-induced cell death (A549 cells): protection from ferroptocide- and TBHP-induced cell death; protection against ferroptocide-induced cell death (HCT 116 cells): protection from ferroptocide- and TBHP-induced cell death |
| CC1=CC(C)=[N+]2C1=Cc1ccc(CCC(=O)NCCCn3cc(CN4C(=O)C5CC=C([C@@H]6C[C@@H](OC(=O)CCl)[C@]7(C)[C@H](C)CC[C@]8(C[C@H](O)C(=O)[C@]87O)[C@H]6C)CC5C4=O)nn3)n1[B-]2(F)F (stereo partly shown) [Compound P30] | retained anticancer activity similar to ferroptocide; also recorded: retain biological activity | – | – |
| Cc1c(C)c2c(c(C)c1O)CCC(C)(C(=O)O)O2 (stereo not shown) [trolox] | – | – | protection against ferroptocide-induced cell death (A549 cells): significantly protected against ferroptocide-induced cell death; protection against ferroptocide-induced cell death (ES-2 cells [1]): significantly protected against ferroptocide-induced cell death; protection against ferroptocide-induced cell death (4T1 cells): significantly protected against ferroptocide-induced cell death; protection against ferroptocide-induced cell death (HCT 116 cells): significantly protected against ferroptocide-induced cell death |
| C=C[C@]1(C)C[C@@H](OC(=O)CCl)[C@]2(C)[C@H](C)CC[C@]3(CCC(=O)[C@H]32)[C@@H](C)[C@@H]1O [Compound P27] | – | – | competition of P30 staining (ES-2 cells [2]): non-competing compounds |
| C=CC1CN2CCC1CC2[C@H](OC(=O)CCl)c1ccnc2ccc(OC)cc12 (stereo partly shown) [QQ1] | – | – | competition of P30 staining (ES-2 cells [2]): non-competing compounds |
| CO[C@H]1C[C@@]23CC[C@@H](C)[C@@](C)([C@H](OC(=O)c4ccco4)C[C@@H](C4=CCn5c(=O)n(-c6ccccc6)c(=O)n5C4)[C@@H]2C)[C@]3(O)C1=O [Compound P26] | no anticancer activity | > 100 µM | – |
| CC(=O)OCC(=O)O[C@@H]1C[C@@H](C2=CCn3c(=O)n(-c4ccccc4)c(=O)n3C2)[C@H](C)[C@@]23CC[C@@H](C)[C@]1(C)[C@]2(O)C(=O)[C@@H](O)C3 [Compound P24] | no anticancer activity | > 100 µM | – |
| CO[C@H]1C[C@@]23CC[C@@H](C)[C@@](C)([C@H](OC(=O)CCl)C[C@@H](C4=CCn5c(=O)n(-c6ccccc6)c(=O)n5C4)[C@@H]2C)[C@]3(O)C1=O [Compound P19] | did not change the activity | 1.9 ± 0.1 µM | – |
| CC(C)[C@H](NC(=O)c1ccc2ccccc2n1)C(=O)N[C@@H](CC(=O)O)C(=O)COc1c(F)cccc1F [Q-VD-OPh] | – | – | protection against ferroptocide-induced cell death (ES-2 cells [1]): does not protect against ferroptocide-induced cell death; protection against ferroptocide-induced cell death (HCT 116 cells): does not protect against ferroptocide-induced cell death |
| CO[C@H]1C[C@@]23CC[C@@H](C)[C@@](C)([C@H](OC(=O)C(Cl)Cl)C[C@@H](C4=CCn5c(=O)n(-c6ccccc6)c(=O)n5C4)[C@@H]2C)[C@]3(O)C1=O [Compound P25] | no anticancer activity | > 100 µM | – |
| C[C@@H]1CC[C@@]23C[C@H](O)C(=O)[C@@]2(O)[C@]1(C)[C@H](OC(=O)CI)C[C@@H](C1=CCn2c(=O)n(-c4ccccc4)c(=O)n2C1)[C@@H]3C [Compound P23] | greater potency in cells | 0.24 ± 0.002 µM | reactivity with excess glutathione (in words) [3]: rapid reaction |
| CC(=O)O[C@H]1C[C@@]23CC[C@@H](C)[C@@](C)([C@H](OC(=O)CCl)C[C@@H](C4=CCn5c(=O)n(-c6ccccc6)c(=O)n5C4)[C@@H]2C)[C@]3(O)C1=O [Compound P20] | did not change the activity | 1.4 ± 0.5 µM | – |
